Laboratory results from US6737383B1, “Herbicidal oxadiazolidines” (priority 1999, dated 2004).

Tests used:
[1] = system: soybean; experiment: Test B pre/postemergence soybean; assay type: in vivo, Glycine max
Method in brief: (§1)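 Response is a visual 0-to-10 score relative to untreated plants, where 0 means no effect and 10 means complete control, taken twelve to sixteen days after application. Treatments went onto soil at planting and onto foliage of 1- to 4-leaf plants, using a surfactant-containing non-phytotoxic solvent.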

[2] = system: cocklebur; experiment: Test B pre/postemergence cocklebur; assay type: in vivo, Xanthium strumarium
Method in brief: as §1

[3] = system: morningglory; experiment: Test B pre/postemergence morningglory; assay type: in vivo, Ipomoea hederacea
Method in brief: as §1

[4] = system: wild oat; experiment: Test B pre/postemergence wild oat; assay type: in vivo, Avena fatua
Method in brief: as §1

[5] = system: crabgrass; experiment: Test B pre/postemergence crabgrass; assay type: in vivo, Digitaria sanguinalis
Method in brief: as §1

[6] = system: pigweed; experiment: Test B pre/postemergence pigweed; assay type: in vivo, Amaranthus retroflexus
Method in brief: as §1

[7] = system: blackgrass; experiment: Test B pre/postemergence blackgrass; assay type: in vivo, Alopecurus myosuroides
Method in brief: as §1

[8] = system: velvetleaf; experiment: Test B pre/postemergence velvetleaf; assay type: in vivo, Abutilon theophrasti
Method in brief: as §1

[9] = system: purple nutsedge; experiment: Test B pre/postemergence purple nutsedge; assay type: in vivo, Cyperus rotundus
Method in brief: as §1

[10] = system: giant foxtail; experiment: Test B pre/postemergence giant foxtail; assay type: in vivo, Setaria faberii
Method in brief: as §1

[11] = system: smallflower flatsedge; experiment: Test B flood test smallflower flatsedge; assay type: in vivo, Cyperus difformis
Method in brief: (§2)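 Flood test on plants grown to the 2-leaf stage; treated plants kept in greenhouse twelve to sixteen days, then visually rated against controls on a 0 (no effect) to 10 (complete control) scale.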

[12] = system: surinam grass; experiment: Test B pre/postemergence surinam grass; assay type: in vivo, Brachiaria decumbens
Method in brief: as §1

[13] = system: wheat; experiment: Test B pre/postemergence wheat; assay type: in vivo, Triticum aestivum
Method in brief: as §1

[14] = system: rice; experiment: Test B flood test rice; assay type: in vivo, Oryza sativa
Method in brief: as §2

[15] = system: bedstraw; experiment: Test B pre/postemergence bedstraw; assay type: in vivo, Galium aparine
Method in brief: as §1

[16] = system: bamyardgrass; experiment: Test B flood test barnyardgrass; assay type: in vivo, Echinochloa crus-galli
Method in brief: as §2

[17] = Postemergence, Rate 125 g/ha, scale of 0 to 10 where 0 is no effect and 10 is complete control
[18] = Postemergence, Rate 1000 g/ha, scale 0 to 10 (0 no effect, 10 complete control)
[19] = Preemergence, Rate 62 g/ha, scale of 0 to 10 where 0 is no effect and 10 is complete control
[20] = Preemergence, Rate 125 g/ha, 0 is no effect, 10 is complete control
[21] = Preemergence, Rate 250 g/ha, scale 0 to 10, 0 is no effect, 10 is complete control
[22] = Preemergence, Rate 500 g/ha, scale 0 to 10 (0 no effect, 10 complete control)
[23] = Rate 62 g/ha, Postemergence, scale of 0 to 10 where 0 is no effect and 10 is complete control
[24] = Rate 250 g/ha, Postemergence, scale 0 to 10, 0 is no effect, 10 is complete control
[25] = Rate 500 g/ha, Postemergence, scale 0 to 10
[26] = Rate 1000 g/ha, Preemergence, scale 0 to 10 (0 no effect, 10 complete control)
[27] = Rate 2000 g/ha, Postemergence, scale 0 to 10
[28] = Rate 2000 g/ha, Preemergence, scale 0 to 10
[29] = Postemergence (flood test species), Rate 125 g/ha, scale of 0 to 10 where 0 is no effect and 10 is complete control
[30] = Rate 62 g/ha, Postemergence section, flood test species, scale of 0 to 10 where 0 is no effect and 10 is complete control
[31] = Rate 250 g/ha, Postemergence (flood test), scale 0 to 10, 0 is no effect, 10 is complete control
[32] = Rate 250 g/ha, Pre-emergence, flood-test species, scale 0 to 10, 0 is no effect, 10 is complete control
[33] = Rate 500 g/ha, listed under Postemergence (flood test species), scale 0 to 10
[34] = Rate 2000 g/ha, Pre-emergence (as headed), scale 0 to 10
[35] = Rate 500 g/ha, headed Pre-emergence (flood test species), scale 0 to 10 (0 no effect, 10 complete control)
[36] = Rate 1000 g/ha, Pre-emergence (as headed), scale 0 to 10

CC(C)N(C(=O)n1oc(=O)n(N(C)c2ccccc2)c1=O)c1ccc(F)cc1 [Compound 177]
Soybean plant response rating [1, 17]: 1
Soybean plant response rating [1, 18]: 3
Soybean plant response rating [1, 19]: 0
Soybean plant response rating (0 to 10 scale) [1, 20]: 0
Soybean plant response rating [1, 21]: 0
Soybean plant response rating [1, 22]: 0
Soybean plant response rating [1, 23]: 1
Plant response rating, Soybean [1, 24]: 2
Soybean plant response rating [1, 25]: 4
Plant response rating, Soybean [1, 26]: 0
Soybean plant response rating [1, 27]: 4
Soybean plant response rating [1, 28]: 0
Cocklebur plant response rating [2, 17]: 0
Cocklebur plant response rating [2, 18]: 0
Cocklebur plant response rating [2, 19]: 0
Cocklebur plant response rating (0 to 10 scale) [2, 20]: 0
Cocklebur plant response rating [2, 21]: 0
Cocklebur plant response rating [2, 22]: 0
Cocklebur plant response rating [2, 23]: 0
Plant response rating, Cocklebur [2, 24]: 0
Cocklebur plant response rating [2, 25]: 3
Cocklebur plant response rating [2, 27]: 0
Cocklebur plant response rating [2, 28]: 2
Morningglory plant response rating [3, 17]: 0
Morningglory plant response rating [3, 18]: 1
Morningglory plant response rating [3, 19]: 0
Morningglory plant response rating (0 to 10 scale) [3, 20]: 0
Morningglory plant response rating [3, 21]: 0
Morningglory plant response rating [3, 22]: 0
Morningglory plant response rating [3, 23]: 0
Plant response rating, Morningglory [3, 24]: 2
Morningglory plant response rating [3, 25]: 4
Plant response rating, Morningglory [3, 26]: 0
Morningglory plant response rating [3, 27]: 1
Morningglory plant response rating [3, 28]: 0
Wild oats plant response rating [4, 18]: 2
Wild oats plant response rating [4, 19]: 0
Wild oats plant response rating (0 to 10 scale) [4, 20]: 0
Wild oats plant response rating [4, 21]: 0
Wild oats plant response rating [4, 22]: 2
Plant response rating, Wild oats [4, 24]: 0
Wild oats plant response rating [4, 25]: 0
Plant response rating, Wild oats [4, 26]: 10
Wild oats plant response rating [4, 27]: 2
Wild oats plant response rating [4, 28]: 10
Crabgrass plant response rating [5, 17]: 0
Crabgrass plant response rating [5, 18]: 0
Crabgrass plant response rating [5, 19]: 1
Crabgrass plant response rating (0 to 10 scale) [5, 20]: 6
Crabgrass plant response rating [5, 21]: 9
Crabgrass plant response rating [5, 22]: 9
Crabgrass plant response rating [5, 23]: 0
Plant response rating, Crabgrass [5, 24]: 2
Crabgrass plant response rating [5, 25]: 3
Plant response rating, Crabgrass [5, 26]: 8
Crabgrass plant response rating [5, 27]: 0
Crabgrass plant response rating [5, 28]: 9
Redroot pigweed plant response rating [6, 17]: 0
Redroot pigweed plant response rating [6, 18]: 2
Redroot pigweed plant response rating [6, 19]: 0
Redroot pigweed plant response rating (0 to 10 scale) [6, 20]: 0
Redroot pigweed plant response rating [6, 21]: 0
Redroot pigweed plant response rating [6, 22]: 0
Redroot pigweed plant response rating [6, 23]: 0
Plant response rating, Redroot pigweed [6, 24]: 0
Redroot pigweed plant response rating [6, 25]: 3
Plant response rating, Redroot pigweed [6, 26]: 0
Redroot pigweed plant response rating [6, 27]: 3
Redroot pigweed plant response rating [6, 28]: 0
Blackgrass plant response rating [7, 17]: 0
Blackgrass plant response rating [7, 18]: 3
Blackgrass plant response rating [7, 19]: 0
Blackgrass plant response rating (0 to 10 scale) [7, 20]: 0
Blackgrass plant response rating [7, 21]: 6
Blackgrass plant response rating [7, 22]: 6
Blackgrass plant response rating [7, 23]: 0
Plant response rating, Blackgrass [7, 24]: 0
Blackgrass plant response rating [7, 25]: 2
Plant response rating, Blackgrass [7, 26]: 7
Blackgrass plant response rating [7, 27]: 6
Blackgrass plant response rating [7, 28]: 9
Velvetleaf plant response rating [8, 18]: 0
Velvetleaf plant response rating [8, 19]: 0
Velvetleaf plant response rating (0 to 10 scale) [8, 20]: 0
Velvetleaf plant response rating [8, 21]: 0
Velvetleaf plant response rating [8, 22]: 0
Plant response rating, Velvetleaf [8, 24]: 0
Velvetleaf plant response rating [8, 25]: 3
Plant response rating, Velvetleaf [8, 26]: 0
Velvetleaf plant response rating [8, 27]: 4
Velvetleaf plant response rating [8, 28]: 3
Nutsedge plant response rating [9, 17]: 0
Nutsedge plant response rating [9, 18]: 0
Nutsedge plant response rating [9, 19]: 0
Nutsedge plant response rating (0 to 10 scale) [9, 20]: 0
Nutsedge plant response rating [9, 21]: 0
Nutsedge plant response rating [9, 22]: 0
Nutsedge plant response rating [9, 23]: 0
Plant response rating, Nutsedge [9, 24]: 0
Nutsedge plant response rating [9, 25]: 0
Plant response rating, Nutsedge [9, 26]: 0
Nutsedge plant response rating [9, 27]: 0
Nutsedge plant response rating [9, 28]: 0
Giant foxtail plant response rating [10, 17]: 0
Giant foxtail plant response rating [10, 18]: 0
Giant foxtail plant response rating [10, 19]: 3
Giant foxtail plant response rating (0 to 10 scale) [10, 20]: 3
Giant foxtail plant response rating [10, 21]: 10
Giant foxtail plant response rating [10, 22]: 10
Giant foxtail plant response rating [10, 23]: 0
Plant response rating, Giant foxtail [10, 24]: 0
Giant foxtail plant response rating [10, 25]: 0
Plant response rating, Giant foxtail [10, 26]: 10
Giant foxtail plant response rating [10, 27]: 2
Giant foxtail plant response rating [10, 28]: 10
S. Flatsedge plant response rating [11, 29]: 0
S. Flatsedge plant response rating ([11]; Pre-emergence, Rate 1000 g/ha, scale 0 to 10 (0 no effect, 10 complete control)): 0
S. Flatsedge plant response rating [11, 30]: 0
Plant response rating, S. Flatsedge [11, 31]: 0
S. Flatsedge plant response rating [11, 32]: 0
S. Flatsedge plant response rating [11, 33]: 0
S. Flatsedge plant response rating ([11]; Rate 500 g/ha, Pre-emergence, flood test species, scale 0 to 10 (0 no effect, 10 complete control)): 0
S. Flatsedge plant response rating [11, 34]: 0
B. signalgrass plant response rating [12, 17]: 0
B. signalgrass plant response rating [12, 18]: 0
B. signalgrass plant response rating [12, 19]: 0
B. signalgrass plant response rating (0 to 10 scale) [12, 20]: 0
B. signalgrass plant response rating [12, 21]: 0
B. signalgrass plant response rating [12, 22]: 0
B. signalgrass plant response rating [12, 23]: 0
Plant response rating, B. signalgrass [12, 24]: 0
B. signalgrass plant response rating ([12]; Rate 500 g/ha, Postemergence, scale 0 to 10, 0 no effect, 10 complete control): 0
Plant response rating, B. signalgrass [12, 26]: 5
B. signalgrass plant response rating [12, 27]: 0
B. signalgrass plant response rating [12, 28]: 9
Wheat plant response rating [13, 18]: 3
Wheat plant response rating [13, 19]: 0
Wheat plant response rating (0 to 10 scale) [13, 20]: 0
Wheat plant response rating [13, 21]: 0
Wheat plant response rating [13, 22]: 0
Plant response rating, Wheat [13, 24]: 0
Wheat plant response rating [13, 25]: 4
Plant response rating, Wheat [13, 26]: 0
Wheat plant response rating [13, 27]: 3
Wheat plant response rating [13, 28]: 2
Rice plant response rating [14, 29]: 0
Rice plant response rating [14, 30]: 0
Plant response rating, Rice [14, 31]: 0
Rice plant response rating [14, 32]: 0
Plant response rating, Rice [14, 35]: 0
Rice plant response rating [14, 33]: 0
Rice plant response rating [14, 36]: 0
Rice plant response rating [14, 34]: 0
Bedstraw plant response rating [15, 17]: 0
Bedstraw plant response rating [15, 19]: 0
Bedstraw plant response rating (0 to 10 scale) [15, 20]: 0
Bedstraw plant response rating [15, 21]: 9
Bedstraw plant response rating [15, 22]: 10
Bedstraw plant response rating [15, 23]: 0
Plant response rating, Bedstraw [15, 24]: 5
Bedstraw plant response rating [15, 25]: 6
Plant response rating, Bedstraw [15, 26]: 10
Bedstraw plant response rating [15, 28]: 10
Barnyardgrass plant response rating [16, 29]: 0
Barnyardgrass plant response rating [16, 30]: 0
Plant response rating, Barnyardgrass [16, 31]: 0
Barnyardgrass plant response rating [16, 32]: 0
Plant response rating, Barnyardgrass [16, 35]: 0
Barnyardgrass plant response rating [16, 33]: 0
Barnyardgrass plant response rating [16, 36]: 0
Barnyardgrass plant response rating ([16]; Rate 2000 g/ha, Pre-emergence (as headed), scale 0 to 10, 0 no effect, 10 complete control): 0
